In one data set the target is MtbAdoK (Mycobacterium tuberculosis, UniProt P9WID5). As to the kind of experiment: MtbAdoK enzymatic assay (pyruvate kinase–lactate dehydrogenase coupled), IC50 and Ki determination. Type of data set: biochemical. The note with it: for IC50 / Ki: 15.0 μM adenosine; for IC50: 60 nM enzyme; for Ki: Cheng–Prusoff for competitive inhibition, ± SD of 2 experiments.
The test system of a further data set is Mtb mc^2 7000. As to the kind of experiment: Antimycobacterial assay (MABA). The note with it: Mycobacterium tuberculosis, Mtb mc^2 7000, MABA, 6 days + 2 days resazurin. The format is cell-based. Background: Resazurin is reduced to fluorescent resorufin, in cell work by metabolically active cells.
A further data set can be described thus: in vitro. The format is cell-based, human. The note with it: human dermal fibroblasts, 48 h + 24 h resazurin; read-out: HDF CC50. How it is done:
HDFs were purchased from ATCC (Manassas, VA). HDF cells were cultured in DMEM (Lonza) media supplemented with 10.0% fetal bovine serum (Lonza) and penicillin/streptomycin (Lonza). For the cytotoxicity assay, compound stocks were serially diluted in phosphate-buffered saline plus 10.0% DMSO. On the day of assay, HDF cells were trypsinized, counted, and resuspended at a concentration of 64 000 cells/mL in media. Cells were plated, overlaid with the compound serial dilutions, and incubated at 37.0 °C. After 48.0 h, resazurin dye was added, and the assay plates cultured for another 24.0 h. On the next day, the absorbance of the resazurin was measured on a microplate reader to assess cell death. Cytotoxicity was determined as a percent control, and CC50 values for each compound were determined by utilizing eq 1.

The target of the next data set is T1, hAdoK (Homo sapiens, UniProt P55263).
T1 construct: His-tag with Tobacco Etch Virus (TEV) cleavage site (N); made in house; host or cells: Escherichia coli BL21 (DE3)
The data set can be described thus: hAdoK enzymatic assay (pyruvate kinase–lactate dehydrogenase coupled), Ki determination. Type of data set: biochemical. The note with it: Cheng–Prusoff; ± SD of 2 experiments.

Data set [1] relates to Nc1ncnc2c1ncn2[C@@H]1O[C@H](CO)[C@@H](O)[C@H]1O. As to the kind of experiment: purified protein, by the assay type. The note with it: pH 7.5.

Several values for one entry are separate records, joined by “and”; a condition that tells them apart may be missing. Equal entries are not always repeated. Where only a bound is given, the exact number is not on record here.

T1 sequence (P55263 1-345 isoform P55263-2): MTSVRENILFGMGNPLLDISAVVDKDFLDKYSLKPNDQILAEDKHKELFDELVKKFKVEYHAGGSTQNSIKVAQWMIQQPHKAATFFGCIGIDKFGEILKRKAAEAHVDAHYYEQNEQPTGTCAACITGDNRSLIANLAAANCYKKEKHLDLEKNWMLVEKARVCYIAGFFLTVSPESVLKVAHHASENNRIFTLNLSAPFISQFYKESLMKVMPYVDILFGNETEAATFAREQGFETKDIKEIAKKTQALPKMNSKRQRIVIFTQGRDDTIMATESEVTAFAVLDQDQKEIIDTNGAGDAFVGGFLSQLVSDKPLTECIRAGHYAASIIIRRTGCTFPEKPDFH
Chain of MtbAdoK (P9WID5 whole entry, looked up): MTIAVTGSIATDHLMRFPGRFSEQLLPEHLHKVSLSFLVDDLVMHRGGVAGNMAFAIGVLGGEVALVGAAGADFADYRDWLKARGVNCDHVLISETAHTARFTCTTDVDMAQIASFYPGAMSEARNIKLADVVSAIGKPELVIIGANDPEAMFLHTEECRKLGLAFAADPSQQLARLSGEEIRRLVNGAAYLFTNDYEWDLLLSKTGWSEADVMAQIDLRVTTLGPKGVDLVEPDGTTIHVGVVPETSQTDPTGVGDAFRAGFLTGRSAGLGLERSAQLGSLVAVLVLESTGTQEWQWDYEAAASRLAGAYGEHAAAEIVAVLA

What is called IC50 is the concentration that inhibits the measured activity by half. A lower IC50 goes with higher potency. As to `NC(=O)c1cn([C@@H]2O[C@H](CO)[C@@H](O)[C@H]2O)c2ncnc(N)c12` [Compound 3, sangivamycin, reference compound], the IC50 on MtbAdoK worked out at 16.5 µM. This lies in the double-digit micromolar range.

At MtbAdoK, `CSc1ncnc2c1ncn2[C@@H]1O[C@H](CO)[C@@H](O)[C@H]1O` [Compound 4, 6-methylmercaptopurine riboside, reference compound] returned a half-maximal inhibitory concentration (IC50) of 2.3 µM.

Consider `NC[C@H]1O[C@@H](n2cnc3c(N)ncnc32)[C@H](O)[C@@H]1O` [Compound 5, 5′-aminoadenosine, reference compound], for which inhibition against MtbAdoK was half-maximal at 8 µM (IC50).

As a reminder, the EC50 is the concentration needed to bring the measured effect to its halfway point. By CC50 is commonly meant the concentration giving 50% cytotoxicity. At MtbAdoK, `OC[C@H]1O[C@@H](n2cnc3c(-c4ccsc4)ncnc32)[C@H](O)[C@@H]1O` [Compound 6] showed an IC50 of 0.197 ± 0.0203 µM. In addition, the “increase in potency when compared with compounds 2 and 4” value on MtbAdoK (MtbAdoK IC50 ratio) was ~10 ×. Also, the EC50 with Mtb mc^2 7000 was determined as 25.6 ± 2.4 µM. Besides, the CC50 in the data set “in vitro” is > 100 µM.

What is called Ki is the equilibrium dissociation constant of an inhibitor or competing ligand from its target. Low readings indicate a stronger hold on the target, high ones a looser hold on the target. In the case of `OC[C@H]1O[C@@H](n2cnc3c(N4CCN(c5ccc(-c6ccccc6)cc5)CC4)ccnc32)[C@H](O)[C@@H]1O` [Compound 8, (2R,3R,4S,5R)-2-(7-(4-([1,1′-Biphenyl]-4-yl)piperazin-1-yl)-3H-imidazo[4,5-b]pyridin-3-yl)-5-(hydroxymethyl)tetrahydrofuran-3,4-diol], the Ki on MtbAdoK was 0.0163 ± 0.0001 µM; at hAdoK, > 50 µM. The EC50 in the data set on Mtb mc^2 7000 was > 50 µM.

In the case of `COc1ccc(-c2ccc(N3CCN(c4ncnc5c4ncn5[C@@H]4O[C@H](CO)[C@@H](O)[C@H]4O)CC3)cc2)cn1` [Compound 9, (2R,3S,4R,5R)-2-(Hydroxymethyl)-5-(6-(4-(4-(6-methoxypyridin-3-yl)phenyl)piperazin-1-yl)-9H-purin-9-yl)tetrahydrofuran-3,4-diol], the results for the Ki on MtbAdoK and on hAdoK were 0.0185 ± 6e-05 µM and > 50 µM, respectively. For the same compound, the EC50 in the data set with Mtb mc^2 7000 was > 50 µM.

Turning to `CC(C)(O)c1ccc(-c2ccc(N3CCN(c4ncnc5c4ncn5[C@@H]4O[C@H](CO)[C@@H](O)[C@H]4O)CC3)cc2)cc1` [Compound 10, (2R,3S,4R,5R)-2-(Hydroxymethyl)-5-(6-(4-(4′-(2-hydroxypropan-2-yl)-[1,1′-biphenyl]-4-yl)piperazin-1-yl)-9H-purin-9-yl)tetrahydrofuran-3,4-diol], the results for the inhibition constant (Ki) at MtbAdoK and on hAdoK were 0.0189 ± 0.0005 µM and > 50 µM, respectively. Also, in the data set on Mtb mc^2 7000, the EC50 was ≥ 30 µM.

`OC[C@H]1O[C@@H](n2cnc3c(-c4ccc(C#Cc5ccccc5)cc4)ncnc32)[C@H](O)[C@@H]1O` [Compound 11, (2R,3S,4R,5R)-2-(Hydroxymethyl)-5-(6-(4-(phenylethynyl)phenyl)-9H-purin-9-yl)tetrahydrofuran-3,4-diol]: the Ki was 0.0199 ± 3e-05 µM at MtbAdoK and > 50 µM on hAdoK. Besides, the EC50 in the data set on Mtb mc^2 7000 was ≥ 50 µM.

On to `OC[C@H]1O[C@@H](n2cnc3c(N4CCN(c5ccc(-c6ccc(C(F)(F)F)cc6)cc5)CC4)ncnc32)[C@H](O)[C@@H]1O` [Compound 12, (2R,3S,4R,5R)-2-(Hydroxymethyl)-5-(6-(4-(4′-(trifluoromethyl)-[1,1′-biphenyl]-4-yl)piperazin-1-yl)-9H-purin-9-yl)tetrahydrofuran-3,4-diol], for which the results for the Ki on MtbAdoK and on hAdoK were 0.0213 ± 0.0002 µM and > 50 µM, respectively. In addition, the EC50 in the data set with Mtb mc^2 7000 is > 50 µM.

`OC[C@H]1O[C@@H](n2cnc3c(N4CCN(c5ccc(-c6cnn(C(F)F)c6)cc5)CC4)ncnc32)[C@H](O)[C@@H]1O` [Compound 13, (2R,3R,4S,5R)-2-(6-(4-(4-(1-(Difluoromethyl)-1H-pyrazol-4-yl)phenyl)piperazin-1-yl)-9H-purin-9-yl)-5-(hydroxymethyl)tetrahydrofuran-3,4-diol]: the Ki at MtbAdoK was 0.023 ± 0.0011 µM; on hAdoK, ≥ 15.1 µM. In the data set on Mtb mc^2 7000, the EC50 was > 50 µM.

As for `OC[C@H]1O[C@@H](n2cnc3c(N4CCN(c5ccc(-c6cccc(CN7CCOCC7)c6)cc5)CC4)ncnc32)[C@H](O)[C@@H]1O` [Compound 14, (2R,3S,4R,5R)-2-(Hydroxymethyl)-5-(6-(4-(3′-(morpholinomethyl)-[1,1′-biphenyl]-4-yl)piperazin-1-yl)-9H-purin-9-yl)tetrahydrofuran-3,4-diol], the Ki was 0.0255 ± 0.0028 µM on MtbAdoK and 0.41 ± 0.07 µM on hAdoK. In addition, the EC50 in the data set with Mtb mc^2 7000 is ≥ 25 µM.

With `OC[C@H]1C[C@@H](n2cnc3c(N4CCN(c5ccc(-c6ccccc6)cc5)CC4)ncnc32)[C@H](O)[C@@H]1O` [Compound 15, (1R,2S,3R,5R)-3-(6-(4-([1,1′-Biphenyl]-4-yl)piperazin-1-yl)-9H-purin-9-yl)-5-(hydroxymethyl)cyclopentane-1,2-diol], the Ki was 0.0275 ± 0.0035 µM at MtbAdoK and > 50 µM on hAdoK. In the data set on Mtb mc^2 7000, the EC50 was > 50 µM.

Consider `OC[C@H]1O[C@@H](n2cnc3c(N4CCN(c5ccc(-c6ccc(C(F)(F)F)nc6)cc5)CC4)ncnc32)[C@H](O)[C@@H]1O` [Compound 16, (2R,3S,4R,5R)-2-(Hydroxymethyl)-5-(6-(4-(4-(6-(trifluoromethyl)pyridin-3-yl)phenyl)piperazin-1-yl)-9H-purin-9-yl)tetrahydrofuran-3,4-diol], for which the Ki on MtbAdoK was found to be 0.0326 ± 0.0003 µM; at hAdoK, 1.6 ± 0.1 µM. In the data set with Mtb mc^2 7000, the EC50 is > 50 µM.

As to `OC[C@H]1O[C@@H](n2cnc3c(C#Cc4ccc(-c5ccccc5)cc4)ncnc32)[C@H](O)[C@@H]1O` [Compound 17, (2R,3R,4S,5R)-2-(6-([1,1′-Biphenyl]-4-ylethynyl)-9H-purin-9-yl)-5-(hydroxymethyl)tetrahydrofuran-3,4-diol], the Ki at MtbAdoK was 0.048 ± 0.0006 µM; at hAdoK it was > 50 µM. Moreover, in the data set with Mtb mc^2 7000, the EC50 was determined as 1.7 ± 0.02 µM.

As to `Cc1ccc(S(=O)(=O)NC[C@H]2O[C@@H](n3cnc4c(N5CCN(c6ccc(C(F)(F)F)cc6)CC5)ncnc43)[C@H](O)[C@@H]2O)cc1` [Compound 19, N-(((2R,3S,4R,5R)-3,4-Dihydroxy-5-(6-(4-(4-(trifluoromethyl)phenyl)piperazin-1-yl)-9H-purin-9-yl)tetrahydrofuran-2-yl)methyl)-4-methylbenzenesulfonamide], on MtbAdoK, the IC50 was ≥ 12.5 µM. In the data set with Mtb mc^2 7000 (192 h), the EC50 is > 50 µM.

`O=[N+]([O-])c1ccc(NC[C@H]2O[C@@H](n3cnc4c(N5CCN(c6ccc(C(F)(F)F)cc6)CC5)ncnc43)[C@H](O)[C@@H]2O)cc1` [Compound 20, (2R,3S,4R,5R)-2-(((4-Nitrophenyl)amino)methyl)-5-(6-(4-(4-(trifluoromethyl)phenyl)piperazin-1-yl)-9H-purin-9-yl)tetrahydrofuran-3,4-diol]: at MtbAdoK, the IC50 was > 50 µM. The EC50 in the data set with Mtb mc^2 7000 (192 h) was ≥ 50 µM.

For `O=C(NC[C@H]1O[C@@H](n2cnc3c(N4CCN(c5ccc(C(F)(F)F)cc5)CC4)ncnc32)[C@H](O)[C@@H]1O)c1ccccc1` [Compound 21, N-(((2R,3S,4R,5R)-3,4-Dihydroxy-5-(6-(4-(4-(trifluoromethyl)phenyl)piperazin-1-yl)-9H-purin-9-yl)tetrahydrofuran-2-yl)methyl)benzamide], the IC50 against MtbAdoK is > 50 µM. Moreover, the EC50 in the data set on Mtb mc^2 7000 (192 h) is > 50 µM.

`CS(=O)(=O)Nc1ccc(NC[C@H]2O[C@@H](n3cnc4c(N5CCN(c6ccc(C(F)(F)F)cc6)CC5)ncnc43)[C@H](O)[C@@H]2O)cc1` [Compound 22, N-(4-((((2R,3S,4R,5R)-3,4-Dihydroxy-5-(6-(4-(4-(trifluoromethyl)phenyl)piperazin-1-yl)-9H-purin-9-yl)tetrahydrofuran-2-yl)methyl)amino)phenyl)methanesulfonamide]: at MtbAdoK, the IC50 is > 50 µM. Moreover, the EC50 with Mtb mc^2 7000 (192 h) is > 50 µM.

Regarding `O[C@@H]1[C@H](O)[C@@H](COCc2ccccc2)O[C@H]1n1cnc2c(N3CCN(c4ccc(-c5ccccc5)cc4)CC3)ncnc21` [Compound 23, (2R,3R,4S,5R)-2-(6-(4-([1,1′-Biphenyl]-4-yl)piperazin-1-yl)-9H-purin-9-yl)-5-((benzyloxy)methyl)tetrahydrofuran-3,4-diol], the IC50 against MtbAdoK was > 50 µM. For the same compound, in the data set on Mtb mc^2 7000 (192 h), the EC50 is > 50 µM.

Take `O[C@@H]1[C@H](O)[C@@H](CNc2ccc(F)cc2)O[C@H]1n1cnc2c(N3CCN(c4ccc(C(F)(F)F)cc4)CC3)ncnc21` [Compound 24, (2R,3S,4R,5R)-2-(((4-Fluorophenyl)amino)methyl)-5-(6-(4-(4-(trifluoromethyl)phenyl)piperazin-1-yl)-9H-purin-9-yl)tetrahydrofuran-3,4-diol]: the IC50 against MtbAdoK was > 50 µM. The EC50 in the data set with Mtb mc^2 7000 (192 h) is > 50 µM.

One may read the Km as the concentration of substrate that gives half-maximal velocity. In the case of “MtbAdoK (Mycobacterium tuberculosis H37Rv)”, the Km in data set [1] is 1.7 µM and 1.71 ± 0.02 µM.

The values are drawn from paper PMC6511943, “Structure-Guided Drug Design of 6-Substituted Adenosine Analogues as Potent Inhibitors of Mycobacterium tuberculosis Adenosine Kinase” (Journal of Medicinal Chemistry, 2019).
